US20050075275A1, “Regulation of the apj receptor for use in the treatment or prophylaxis of cardiac diseases” (Bayer Aktiengesellschaft, priority 2001, published 2005)

Test system: APJ Receptor
Experiment: In vivo investigations of the stimulation of the APJ receptor by apelin in anesthetized dogs (blood pressure, heart rate, coronary flow)
Protocol: Adult FBI (Foxhound-Beagle-Irish-Setter) dogs (20-30 kg) are initially anesthetized with thiopental Na (Trapanal, Byk-Gulden) 20-30 mg/kg i.v. Alcuronium chloride (Alloferin, Roche) 0.1 mg/kg is initially given i.v. for muscle relaxation. The animals are intubated and ventilated with a ⅓ O2/N2O mixture using an Engström respiratory pump with 15-18 breaths per min and a volume of 18-24 ml/kg. The ventilation is set accurately according to the arterial partial pressure of CO2, maintaining an average pCO2 of 35-45 mmHg. The maintenance anesthesia is done with isoflurane (Baxter) 1.5-3%. The body temperature is kept at 38° C.±0.1° C. The arterial blood pressure is measured via a catheder in the femoral artery. A thoracotomy is performed at the fifth intercostal space on the left side. The lung is retracted and fixed, and the pericardium is incised. A proximal section of the LAD (left coronary artery) distal to the first diagonal branch is exposed, and a calibrated electromagnetic flow probe (Gould Statham, model SP7515) is placed around the vessel and connected to a flowmeter (Statham, model SP-2202). A mechanical occluder is attached distal of the flow probe in such a way that no branches lie between flow probe and occluder.
Blood is taken and substances are administered through a catheder in the femoral vein. A peripheral ECG is recorded with subcutaneously fixed needles. A microtip pressure manometer (Millar model PC-350) is pushed through the left atrium in order to measure the left ventricular pressure. Measurement of the heart rate is controlled by the R wave of the ECG. The hemodynamic parameters and the coronary flow are recorded on a multichannel recorder throughout the experiment.
The experiment is started after a stabilization time of 1 hour. […] The heart rate, blood pressure and coronary flow are recorded and analyzed.

apelin was tested, and the coronary flow (10 μg/kg i.v. bolus) was “significant increase in the coronary flow”, the heart rate (bolus and continuous infusion) was “without changing the heart rate” and the blood pressure (bolus and infusion) was “reduction in the blood pressure”. The coronary flow (infusion 1, 3, 5, 10 μg/kg/min for 10 min) was “dose-dependent increase in coronary flow” and the “infusion rate at which maximum increase in coronary flow is reached” value (infusion for 10 min) was 3 µg/kg/min.
